Data from patent publication US8653087B2, “Pyrido [5, 4-D] pyrimidines as cell proliferation inhibitors” (Boehringer Ingelheim International GmbH, priority 2008, dated 2014).

Molecular target: B-Raf (V600E)-kinase (Homo sapiens (Human), UniProt P15056, V600E)
Test: Kinase test B-RAF (V600E)
Assay type: biochemical
Settings: B-RAF (V600E) kinase test, 250 μM ATP
Outline: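 Read-out is DELFIA europium TRF of phospho-MEK (Ser217/221) on biotinylated MEK1 bound to streptavidin plates, IC50 from dose-response. Reaction ran 60 min at RT with 250 μM ATP, after a 24 h RT preincubation of compound with B-Raf (V600E) kinase, 5% DMSO final.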

Sequence of B-Raf (V600E)-kinase (P15056 whole entry V600E): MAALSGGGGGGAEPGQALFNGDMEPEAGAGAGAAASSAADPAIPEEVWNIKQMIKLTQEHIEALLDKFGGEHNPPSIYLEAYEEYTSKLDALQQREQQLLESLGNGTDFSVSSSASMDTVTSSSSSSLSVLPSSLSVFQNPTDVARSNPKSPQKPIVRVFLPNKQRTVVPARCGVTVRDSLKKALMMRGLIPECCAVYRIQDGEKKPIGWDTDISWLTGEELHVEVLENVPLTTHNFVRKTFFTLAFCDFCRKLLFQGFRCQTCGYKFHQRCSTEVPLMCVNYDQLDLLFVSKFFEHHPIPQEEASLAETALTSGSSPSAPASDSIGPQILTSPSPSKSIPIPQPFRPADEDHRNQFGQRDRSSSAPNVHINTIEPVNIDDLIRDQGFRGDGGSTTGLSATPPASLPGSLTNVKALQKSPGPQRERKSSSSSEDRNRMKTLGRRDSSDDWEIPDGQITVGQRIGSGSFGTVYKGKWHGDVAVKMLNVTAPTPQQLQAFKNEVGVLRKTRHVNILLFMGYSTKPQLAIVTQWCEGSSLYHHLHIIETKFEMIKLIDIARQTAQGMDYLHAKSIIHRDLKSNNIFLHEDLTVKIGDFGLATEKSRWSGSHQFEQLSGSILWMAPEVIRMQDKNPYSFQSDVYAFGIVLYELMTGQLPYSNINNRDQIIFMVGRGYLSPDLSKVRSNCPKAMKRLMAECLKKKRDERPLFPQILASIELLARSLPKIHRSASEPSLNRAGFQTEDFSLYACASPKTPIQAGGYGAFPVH

`Cc1ccc(C(=O)Nc2ccc(N(C)CCN(C)C)c(C(F)(F)F)c2)cc1Nc1ncnc2cnc(NCc3ccccn3)nc12` [III-135] gave an IC50 of 4 nM.

`Cc1ccc(C(=O)Nc2ccc(N(C)CCN(C)C)c(C(F)(F)F)c2)cc1Nc1ncnc2cnc(NCc3ccncc3)nc12` [III-136] gave an IC50 of 3 nM.

Compound `COCCN(C)c1ncc2ncnc(Nc3cc(C(=O)Nc4cc(OCCN(C)C)cc(C(F)(F)F)c4)ccc3C)c2n1` [III-141] has an IC50 of 2 nM.

`Cc1ccc(C(=O)Nc2cc(OCCN(C)C)cc(C(F)(F)F)c2)cc1Nc1ncnc2cnc(N3CCSCC3)nc12` [III-142] gave an IC50 of 3 nM.

Work on `Cc1ccc(C(=O)Nc2cc(OCCN(C)C)cc(C(F)(F)F)c2)cc1Nc1ncnc2cnc(N3CCC3)nc12` [III-143] yielded an IC50 of 2 nM.

`Cc1ccc(C(=O)Nc2cc(OCCN(C)C)cc(C(F)(F)F)c2)cc1Nc1ncnc2cnc(NCCF)nc12` [III-144] was tested, and the IC50 was < 1 nM.

Compound `Cc1ccc(C(=O)Nc2cc(OCCN(C)C)cc(C(F)(F)F)c2)cc1Nc1ncnc2cnc(N3CCC(F)CC3)nc12` [III-145] has an IC50 of 2 nM.

With `Cc1ccc(C(=O)Nc2cc(OCCN(C)C)cc(C(F)(F)F)c2)cc1Nc1ncnc2cnc(NCC3CCOC3)nc12` (stereo not shown) [III-146] the IC50 was < 1 nM.

`Cc1ccc(C(=O)Nc2cc(OCCN(C)C)cc(C(F)(F)F)c2)cc1Nc1ncnc2cnc(NCc3ccccc3)nc12` [III-147] gave an IC50 of 1 nM.

With `Cc1ccc(C(=O)Nc2cc(OCCN(C)C)cc(C(F)(F)F)c2)cc1Nc1ncnc2cnc(N3CCOCC3)nc12` [III-149] the IC50 was < 1 nM.

Compound `Cc1ccc(C(=O)Nc2cc(OCCN(C)C)cc(C(F)(F)F)c2)cc1Nc1ncnc2cnc(N3CCCC3)nc12` [III-150] has an IC50 of 2 nM.

For `COCCNc1ncc2ncnc(Nc3cc(C(=O)Nc4cc(OCCN(C)C)cc(C(F)(F)F)c4)ccc3C)c2n1` [III-151], the IC50 was 1 nM.

`Cc1ccc(C(=O)Nc2cc(OCCN(C)C)cc(C(F)(F)F)c2)cc1Nc1ncnc2cnc(NC3CC3)nc12` [III-152] was tested, and the IC50 was < 1 nM.

In the case of `Cc1ccc(C(=O)Nc2cc(OCCN(C)C)cc(C(F)(F)F)c2)cc1Nc1ncnc2cnc(NCC(C)C)nc12` [III-153], the IC50 is reported as < 1 nM.

`Cc1ccc(C(=O)Nc2cc(OCCN(C)C)cc(C(F)(F)F)c2)cc1Nc1ncnc2cnc(N(C)C)nc12` [III-155] was tested, and the IC50 was 2 nM.

`CNc1ncc2ncnc(Nc3cc(C(=O)Nc4cc(OCCN(C)C)cc(C(F)(F)F)c4)ccc3C)c2n1` [III-156] was tested, and the IC50 was < 1 nM.

With `CCN(CC)c1ncc2ncnc(Nc3cc(C(=O)Nc4cc(OCCN(C)C)cc(C(F)(F)F)c4)ccc3C)c2n1` [III-157] the IC50 was 3 nM.

In the case of `Cc1ccc(C(=O)Nc2cc(N(C)CCN(C)C)cc(C(F)(F)F)c2)cc1Nc1ncnc2cnc(NCc3cccnc3)nc12` [III-168], the IC50 is reported as < 1 nM.

With `Cc1ccc(C(=O)Nc2cc(N(C)CCN(C)C)cc(C(F)(F)F)c2)cc1Nc1ncnc2cnc(NCc3ccccn3)nc12` [III-172] the IC50 was 2 nM.

`Cc1ccc(C(=O)Nc2cc(N(C)CCN(C)C)cc(C(F)(F)F)c2)cc1Nc1ncnc2cnc(NCc3ccncc3)nc12` [III-173] was tested, and the IC50 was 1 nM.

`Cc1ccc(C(=O)NCC2CCOC2)cc1Nc1ncnc2cnc(N3CCCN(C)CC3)nc12` (stereo not shown) [III-179] was tested, and the IC50 was > 7000 nM.

Work on `Cc1ccc(C(=O)Nc2cccc(C(C)(C)C#N)c2)cc1Nc1ncnc2cnc(N3CCCN(C)CC3)nc12` [III-180] yielded an IC50 of 3 nM.

With `COc1c(NC(=O)c2ccc(C)c(Nc3ncnc4cnc(N5CCCN(C)CC5)nc34)c2)cc(C(C)(C)C)cc1NS(C)(=O)=O` [III-181] the IC50 was 17 nM.

Work on `Cc1ccc(C(=O)NCc2cccc(C(F)(F)F)c2)cc1Nc1ncnc2cnc(N3CCCN(C)CC3)nc12` [III-182] yielded an IC50 of 245 nM.

For `Cc1ccc(C(=O)NC2CCCCC2)cc1Nc1ncnc2cnc(N3CCCN(C)CC3)nc12` [III-183], the IC50 was > 15000 nM.

With `Cc1ccc(C(=O)Nc2ccccc2)cc1Nc1ncnc2cnc(N3CCCN(C)CC3)nc12` [III-184] the IC50 was 2880 nM.

`Cc1ccc(C(=O)NC2CC2)cc1Nc1ncnc2cnc(N3CCCN(C)CC3)nc12` [III-185] was tested, and the IC50 was > 15000 nM.

In the case of `Cc1ccc(C(=O)Nc2ccc3c(c2)C(C)(C)C(=O)N3CCN2CCCC2)cc1Nc1ncnc2cnc(N3CCN(C)CC3)nc12` [III-186], the IC50 is reported as 26 nM.

For `Cc1ccc(C(=O)NCC2CCOC2)cc1Nc1ncnc2cnc(N3CCN(C)CC3)nc12` (stereo not shown) [III-187], the IC50 was > 2000 nM.

In the case of `Cc1ccc(C(=O)NCc2cccc(C(F)(F)F)c2)cc1Nc1ncnc2cnc(N3CCN(C)CC3)nc12` [III-188], the IC50 is reported as 104 nM.

For `Cc1ccc(C(=O)NC2CCCCC2)cc1Nc1ncnc2cnc(N3CCN(C)CC3)nc12` [III-189], the IC50 was > 15000 nM.

`Cc1ccc(C(=O)Nc2ccccc2)cc1Nc1ncnc2cnc(N3CCN(C)CC3)nc12` [III-190] showed an IC50 of 1540 nM.

With `Cc1ccc(C(=O)NC2CC2)cc1Nc1ncnc2cnc(N3CCN(C)CC3)nc12` [III-191] the IC50 was > 15000 nM.

`Cc1ccc(C(=O)NCC2CCOC2)cc1Nc1ncnc2cnc(N3CCOCC3)nc12` (stereo not shown) [III-193] was tested, and the IC50 was > 15000 nM.

For `Cc1ccc(C(=O)NC2CC2)cc1Nc1ncnc2cnc(N3CCOCC3)nc12` [III-194], the IC50 was > 2000 nM.

`Cc1ccc(C(=O)Nc2cccc(S(=O)(=O)N(C)C)c2)cc1Nc1ncnc2cnc(N(C)CCN(C)C)nc12` [III-195] gave an IC50 of 59 nM.

Work on `Cc1ccc(C(=O)Nc2ccc3c(c2)C(C)(C)C(=O)N3CCN2CCCC2)cc1Nc1ncnc2cnc(N(C)CCN(C)C)nc12` [III-196] yielded an IC50 of 16 nM.

With `Cc1ccc(C(=O)NCC2CCOC2)cc1Nc1ncnc2cnc(N(C)CCN(C)C)nc12` (stereo not shown) [III-197] the IC50 was > 15000 nM.

For `Cc1ccc(C(=O)Nc2cccc(C(C)(C)C#N)c2)cc1Nc1ncnc2cnc(N(C)CCN(C)C)nc12` [III-198], the IC50 was 11 nM.

In the case of `COc1c(NC(=O)c2ccc(C)c(Nc3ncnc4cnc(N(C)CCN(C)C)nc34)c2)cc(C(C)(C)C)cc1NS(C)(=O)=O` [III-199], the IC50 is reported as 23 nM.

Work on `Cc1ccc(C(=O)NCc2cccc(C(F)(F)F)c2)cc1Nc1ncnc2cnc(N(C)CCN(C)C)nc12` [III-200] yielded an IC50 of 971 nM.

In the case of `Cc1ccc(C(=O)NC2CCCCC2)cc1Nc1ncnc2cnc(N(C)CCN(C)C)nc12` [III-201], the IC50 is reported as > 10000 nM.

In the case of `Cc1ccc(C(=O)Nc2ccccc2)cc1Nc1ncnc2cnc(N(C)CCN(C)C)nc12` [III-202], the IC50 is reported as > 2000 nM.

`Cc1ccc(C(=O)NC2CC2)cc1Nc1ncnc2cnc(N(C)CCN(C)C)nc12` [III-203] was tested, and the IC50 was > 10000 nM.

For `Cc1ccc(C(=O)NCC2CCOC2)cc1Nc1ncnc2cnc(N3CC[C@@H](F)C3)nc12` (stereo partly shown) [III-205], the IC50 was > 2000 nM.

Work on `Cc1ccc(C(=O)Nc2cccc(C(C)(C)C#N)c2)cc1Nc1ncnc2cnc(N3CC[C@@H](F)C3)nc12` [III-206] yielded an IC50 of 2 nM.

In the case of `Cc1ccc(C(=O)NCc2cccc(C(F)(F)F)c2)cc1Nc1ncnc2cnc(N3CC[C@@H](F)C3)nc12` [III-207], the IC50 is reported as 11 nM.

In the case of `Cc1ccc(C(=O)NC2CCCCC2)cc1Nc1ncnc2cnc(N3CC[C@@H](F)C3)nc12` [III-208], the IC50 is reported as > 2000 nM.

`Cc1ccc(C(=O)Nc2ccccc2)cc1Nc1ncnc2cnc(N3CC[C@@H](F)C3)nc12` [III-209] was tested, and the IC50 was 162 nM.

For `Cc1ccc(C(=O)NC2CC2)cc1Nc1ncnc2cnc(N3CC[C@@H](F)C3)nc12` [III-210], the IC50 was > 2000 nM.

With `Cc1ccc(C(=O)NCC2CCOC2)cc1Nc1ncnc2cnc(N3CCCCC3)nc12` (stereo not shown) [III-212] the IC50 was > 15000 nM.

`Cc1ccc(C(=O)Nc2cccc(C(C)(C)C#N)c2)cc1Nc1ncnc2cnc(N3CCCCC3)nc12` [III-213] was tested, and the IC50 was 3 nM.

For `Cc1ccc(C(=O)NCc2cccc(C(F)(F)F)c2)cc1Nc1ncnc2cnc(N3CCCCC3)nc12` [III-214], the IC50 was 56 nM.

In the case of `Cc1ccc(C(=O)NC2CCCCC2)cc1Nc1ncnc2cnc(N3CCCCC3)nc12` [III-215], the IC50 is reported as > 10000 nM.

For `Cc1ccc(C(=O)Nc2ccc(F)c(C(F)(F)F)c2)cc1Nc1ncnc2cnc(N3CCCN(C)CC3)nc12` [III-216], the IC50 was 3 nM.

Compound `Cc1ccc(C(=O)Nc2cccc(C(F)(F)F)c2)cc1Nc1ncnc2cnc(N3CCCN(C)CC3)nc12` [III-217] has an IC50 of 2 nM.

`Cc1ccc(C(=O)NCc2ccc(C(C)(C)C)cc2)cc1Nc1ncnc2cnc(N3CCCN(C)CC3)nc12` [III-218] showed an IC50 of 293 nM.

Compound `COc1ccc(C(F)(F)F)cc1NC(=O)c1ccc(C)c(Nc2ncnc3cnc(N4CCCN(C)CC4)nc23)c1` [III-219] has an IC50 of 8 nM.

For `Cc1ccc(C(=O)Nc2ccc(Cl)c(C(F)(F)F)c2)cc1Nc1ncnc2cnc(N3CCCN(C)CC3)nc12` [III-220], the IC50 was 5 nM.

`Cc1ccc(C(=O)NCc2ccc(C(F)(F)F)cc2)cc1Nc1ncnc2cnc(N3CCCN(C)CC3)nc12` [III-221] showed an IC50 of 171 nM.

`Cc1ccc(C(=O)Nc2cccc(OC(F)(F)F)c2)cc1Nc1ncnc2cnc(N3CCCN(C)CC3)nc12` [III-222] was tested, and the IC50 was < 1 nM.

With `Cc1ccc(C(=O)Nc2cccc(C(C)(C)C)c2)cc1Nc1ncnc2cnc(N3CCCN(C)CC3)nc12` [III-224] the IC50 was < 1 nM.

In the case of `COc1ccc(C(C)(C)C)cc1NC(=O)c1ccc(C)c(Nc2ncnc3cnc(N4CCCN(C)CC4)nc23)c1` [III-225], the IC50 is reported as 2 nM.

`Cc1ccc(C(=O)NCc2ccc(C(C)(C)C)cc2)cc1Nc1ncnc2cnc(N3CCN(C)CC3)nc12` [III-226] gave an IC50 of 101 nM.

`Cc1ccc(C(=O)NCc2ccc(C(F)(F)F)cc2)cc1Nc1ncnc2cnc(N3CCN(C)CC3)nc12` [III-227] gave an IC50 of 41 nM.

`Cc1ccc(C(=O)Nc2cccc(C(C)(C)C)c2)cc1Nc1ncnc2cnc(N3CCN(C)CC3)nc12` [III-229] gave an IC50 of 1 nM.

With `COc1ccc(C(C)(C)C)cc1NC(=O)c1ccc(C)c(Nc2ncnc3cnc(N4CCN(C)CC4)nc23)c1` [III-230] the IC50 was 6 nM.

Work on `Cc1ccc(C(=O)Nc2ccc(F)c(C(F)(F)F)c2)cc1Nc1ncnc2cnc(N(C)CCN(C)C)nc12` [III-231] yielded an IC50 of 29 nM.

With `Cc1ccc(C(=O)Nc2cccc(C(F)(F)F)c2)cc1Nc1ncnc2cnc(N(C)CCN(C)C)nc12` [III-232] the IC50 was 4 nM.

`Cc1ccc(C(=O)NCc2ccc(C(C)(C)C)cc2)cc1Nc1ncnc2cnc(N(C)CCN(C)C)nc12` [III-233] was tested, and the IC50 was 571 nM.

Work on `COc1ccc(C(F)(F)F)cc1NC(=O)c1ccc(C)c(Nc2ncnc3cnc(N(C)CCN(C)C)nc23)c1` [III-234] yielded an IC50 of 15 nM.

For `Cc1ccc(C(=O)Nc2ccc(Cl)c(C(F)(F)F)c2)cc1Nc1ncnc2cnc(N(C)CCN(C)C)nc12` [III-235], the IC50 was 2 nM.

With `Cc1ccc(C(=O)NCc2ccc(C(F)(F)F)cc2)cc1Nc1ncnc2cnc(N(C)CCN(C)C)nc12` [III-236] the IC50 was 1120 nM.
